Data on four compounds can be found in patent US20220331408A1, “TREATMENT OF GLYCOGEN STORAGE DISEASE (GSD)” (GENETHON, priority 2019, published 2022).

Data set [1] addresses GAA (Homo sapiens, UniProt P10253). As to the kind of experiment: GAA activity in tissues (4-MU substrate cleavage) of GAA KO mice injected with AAV-hGAA plus chaperones. It counts as in vivo. Particulars: for GAA activity (uptake) in tissues: tissues overall (FIG. 7). The method, then: (§1) Three to four-month-old GAA deficient male mice were divided into six groups and one control group was composed by wild-type littermates. Each group was composed by eight mice in maximum two cages, to facilitate the administration of the drugs dissolved in drinking water. Starting from day 0, GAA deficient (KO) mice (mouse strain B6; 129-Gaa^tm1Rabn/J) were injected with AAV-hGAA at 1×10^11 vg/kg via tail vein injection in combination with the different pharmacological chaperones (PC) dissolved in the drinking water. In parallel, untreated GAA wild-type mice and two groups of GAA deficient mice injected with the AAV-hGAA vector or PBS were used as controls. PC molecules were orally administered to the mice, using a “3 days on/4 days off” regimen, consisting in three consecutive days of treatment followed by four consecutive days with drinking water only, as described in FIG. 4. Mice receive 100 mg/kg/die of duvoglustat (DNJ, AX61Q1, Interchim, San Diego, Calif.), 100 mg/kg/die of duvoglustat combined with 25 mg/kg/die of ambroxol hydrochloride (DNJ-ABX), 25 mg/kg/die of ambroxol hydrochloride (ABX, A9797, Sigma, Saint Louis, Mo.), 4200 mg/kg/die of N-acetyl-cysteine (NAC, A7250, Sigma, Saint Louis, Mo.) dissolved in drinking water (FIG. 4) or normal drinking water.
Circulating hGAA activity and levels were monitored over a period of two months. Mice were sacrificed and different organs and muscles were collected (heart, diaphragm, quadriceps, and triceps) to measure the uptake of GAA in tissues and the glycogen clearance.
At the end of the study (2 months post-injection), animals were sacrificed by CO2 inhalation. Heart, diaphragm, quadriceps, and triceps were collected and snap-frozen in liquid nitrogen for biochemical analysis. Frozen samples are stored at −80° C. until processing.
GAA activity was assessed in plasma and tissue by measurement of 4-methyl-umbelliferyl-α-d-glucoside (4-MU, Sigma, St Louis, Mo.) cleavage at pH 4.3. To this end, mouse tissues collected at sacrifice was homogenized in PBS. Insoluble proteins were removed by centrifugation. The protein content of the resultant lysates was quantified via the BCA Protein Assay (Thermo Fisher Scientific, Waltham, Mass.). Plasma and tissues samples were diluted in water and 10 μL of each sample were incubated with 20 μL of reconstituted substrate for 1 hr at 37° C. After stopping the reaction, the released fluorescence was measured with EN-SPIRE® fluorimeter (Perkin Elmer, Waltham, Mass.). GAA activity was normalized against total protein content or plasma volume.

Data set [2] relates to GAA. Conditions: Pompe cells model expressing mutant forms of GAA, reference [9]; cited from earlier work.
The target of data set [3] is T1, human GAA (hGAA) (Homo sapiens, UniProt P10253). As to the kind of experiment: Mature lysosomal 70 KDa hGAA in tissues (uptake) by Western blot, wild-type mice injected with AAV-GAA plus chaperones. It counts as in vivo. Conditions: for GAA uptake in tissues: tissues overall (FIG. 3). Set-up: expressed in transfected cells. The method, then: Six-eight-week-old C57Bl/6 male mice were divided into 9 groups of five mice. 5×10^11 vg/kg of AAV8-sp7-Δ8-co1GAA vectors were administered at day 0 intravenously in awake, restrained animals via tail vein injection. Two months after the AAV treatment, 7 pharmacological chaperone molecules or combination of them were orally administered to the mice using a “3 on/4 off” regimen (three consecutive days of treatment followed by four consecutive days with drinking water only) for four weeks. At the end of this four-week period, all mice were sacrificed and different organs and muscles were collected (liver, heart, brain, spinal cord, diaphragm, quadriceps, and triceps). C57Bl/6 mice were injected either with PBS (CTRL) or with 5×10^11 vg/kg of the AAV8 vector expressing secretable therapeutic hGAA polypeptide (AAV-GAA).
Two months after vector injection, mice were treated for four weeks with 100 mg/kg/die of duvoglustat (DNJ, AX61Q1, Interchim, San Diego, Calif.), 100 mg/kg/die of duvoglustat combined with 25 mg/kg/die of ambroxol (DNJ-ABX), 25 mg/kg/die of ambroxol hydrochloride (ABX, A9797, Sigma, Saint Louis, Mo.), 2 mg/kg/die of voglibose (VOGLIBOSE, S4101, Selleckchem, Houston, Tex.), 20 mg/kg/die of acarbose (ACARBOSE, S1271, Selleckchem, Houston, Tex.), 2 mg/kg/die of miglitol (MIGLITOL, S2589, Selleckchem, Houston, Tex.) or 4200 mg/kg/die of N-acetyl-cysteine (NAC, A7250, Sigma, Saint Louis, Mo.) dissolved in drinking water (FIG. 1). One group received normal drinking water (WATER).
Three months after vector injection, mice were sacrificed and the levels of human GAA (hGAA) in blood and tissues were analyzed by Western blot.
At the end of the study (3 months post-injection), animals were sacrificed by CO2 inhalation. Liver, heart, brain, spinal cord, diaphragm, quadriceps, and triceps were collected and snap-frozen in liquid nitrogen for biochemical analysis. Frozen samples were stored at −80° C. until processing.
Mouse tissues were collected at sacrifice and homogenized in PBS. Protein concentration was determined using the BCA Protein Assay (Thermo Fisher Scientific, Waltham, Mass.). Plasma and tissues samples were diluted 1:20 in water (except for brain, where samples were diluted 1:200). SDS-page electrophoresis was performed in a 4-12% gradient polyacrylamide gel. After transfer, the membrane was blocked with Odyssey buffer (Li-Cor Biosciences, Lincoln, Nebr.), incubated with an anti-human GAA antibody (rabbit monoclonal antibody, Abcam, Cambridge, UK) and an anti-GAPDH antibody (rabbit polyclonal antibodies, PA1-988, Life Technologies, Carlsbad, Calif.). The membrane was washed and incubated with the appropriate secondary antibody (Li-Cor Biosciences, Lincoln, Nebr.), and visualized by Odyssey imaging system (925-32213, Li-Cor Biosciences, Lincoln, Nebr.). To measure the uptake of GAA in tissues, the 70 KDa band (mature form), visualized by the anti-GAA antibody was quantified and normalized to the levels of expression of GAPDH used as loading control.

The target of data set [4] is T1, human GAA (hGAA). As to the kind of experiment: Circulating hGAA levels by Western blot in wild-type mice injected with AAV-GAA and given chaperones in drinking water. It counts as in vivo. Conditions: wild-type C57Bl/6 mice, AAV-GAA 5×10^11 vg/kg, three months after vector injection, vs AAV-GAA mice on normal water (FIG. 2). The method, then: Six-eight-week-old C57Bl/6 male mice were divided into 9 groups of five mice. 5×10^11 vg/kg of AAV8-sp7-Δ8-co1GAA vectors were administered at day 0 intravenously in awake, restrained animals via tail vein injection. Two months after the AAV treatment, 7 pharmacological chaperone molecules or combination of them were orally administered to the mice using a “3 on/4 off” regimen (three consecutive days of treatment followed by four consecutive days with drinking water only) for four weeks. At the end of this four-week period, all mice were sacrificed and different organs and muscles were collected (liver, heart, brain, spinal cord, diaphragm, quadriceps, and triceps). C57Bl/6 mice were injected either with PBS (CTRL) or with 5×10^11 vg/kg of the AAV8 vector expressing secretable therapeutic hGAA polypeptide (AAV-GAA). […]
Three months after vector injection, mice were sacrificed and the levels of human GAA (hGAA) in blood and tissues were analyzed by Western blot. […]
Mouse tissues were collected at sacrifice and homogenized in PBS. Protein concentration was determined using the BCA Protein Assay (Thermo Fisher Scientific, Waltham, Mass.). […] To measure the uptake of GAA in tissues, the 70 KDa band (mature form), visualized by the anti-GAA antibody was quantified and normalized to the levels of expression of GAPDH used as loading control.

For data set [5], the target named is T1, human GAA (hGAA). Put plainly: Circulating hGAA levels by Western blot in GAA KO mice injected with AAV-hGAA plus chaperones. It counts as in vivo. Particulars: AAV-hGAA 1×10^11 vg/kg, two months after vector injection (FIG. 5). Here is the method: as §1
Circulating hGAA activity and levels were monitored over a period of two months. […]

For data set [6] the following is noted: general statement, no test described; cited from earlier work.

On to `Nc1c(Br)cc(Br)cc1CN[C@H]1CC[C@H](O)CC1` [ABX, ambroxol], for which the “GAA activity (uptake) in tissues” value at GAA [1] is on record as “No significant differences”. In the data set with GAA [2], the “tissue uptake of GAA, especially in a tissue of the nervous system” value is reported as “did not increase”. On human GAA (hGAA) [3], the “GAA uptake in tissues” value was “increase”.
With `OC[C@H]1NC[C@H](O)[C@@H](O)[C@@H]1O` [DNJ, 1-deoxynojirimycin], the “levels of circulating hGAA” value on human GAA (hGAA) [4] and on human GAA (hGAA) [5] was “significant increase” throughout. Further, at GAA [1] (two months (FIG. 7A), significance only with both DNJ and ABX), the “GAA activity in heart” value is recorded as “increased enzyme activity”. Further, at GAA [1] (two months (FIG. 7B), significance only with both DNJ and ABX), the “GAA activity in diaphragm” value is recorded as “increased enzyme activity”. Besides, the “GAA activity in triceps” value on GAA [1] (two months (FIG. 7C), significance only with both DNJ and ABX) is “increased enzyme activity”. Moreover, the “GAA activity in quadriceps” value at GAA [1] (two months (FIG. 7D), significance only with both DNJ and ABX) is recorded as “increased enzyme activity”. For the same compound, the “mature lysosomal form of hGAA in triceps” value at human GAA (hGAA) [3] (Western blot (FIG. 3B), significance reached in triceps only for DNJ group) is given as “increased levels”. Besides, the “mature lysosomal form of hGAA in spinal cord” value at human GAA (hGAA) [3] (Western blot (FIG. 3F)) is reported as “increased levels”. The “mature lysosomal form of hGAA in diaphragm” value at human GAA (hGAA) [3] (Western blot band density normalized to GAPDH (FIG. 3C)) is “increased levels”. In addition, the “GAA uptake in tissues” value on human GAA (hGAA) [3] is “increase”.
On to `CC(=O)N[C@@H](CS)C(=O)O` [NAC, N-acetylcysteine], for which the “levels of circulating hGAA” value on human GAA (hGAA) [4] is “significant increase”. Moreover, the “GAA activity (uptake) in tissues” value on GAA [1] was “No significant differences”. In addition, at human GAA (hGAA) [3], the “GAA uptake in tissues” value is listed as “increase”.
Turning to “recombinant hGAA (ERT): recombinant GAA polypeptide alglucosidase alfa, marketed by Genzyme as Lumizyme or Myozyme”, the half-life result in data set [6] is on record as “relatively short”.
